Here are results for 13 compounds from PubChem BioAssay (NCI).

Structures are written as SMILES.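 Step 1: Grow cells in 96-well plates. Step 2: Expose to compound for 48 hours at 5 concentrations. Step 3: Interpolate endpoints linearly; if unreached, use highest concentration. GI50 is the concentration that inhibits growth by half. TGI is the concentration that stops growth completely.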

Common to all, as to test: growth of human tumour cells (NCI), 48 h
Assay [1] relates to NCI-H23 lung.
Assay [2] deals with DU-145 prostate.
In assay [3] the test system is IGROV1 ovarian.
For assay [4], the system named is NCI-H460 lung.
The subject of assay [5] is SK-MEL-28 melanoma.
Assay [6] has as its system HCT-116 colon.
The subject of assay [7] is SK-OV-3 ovarian.
The subject of assay [8] is NCI/ADR-RES ovarian.

Consider `FC(F)(F)c1ccc2c(Nc3cccc(C4CC(c5ccccc5)=NN4c4ccc(Cl)cc4)c3)ccnc2c1` (stereo not given), for which the GI50 is 4.22 µM in assay [1]; 3.61 µM in assay [2]; 2.57 µM in assay [3]; 4.08 µM in assay [4]; 4.54 µM in assay [5]; 1.62 µM in assay [6]. The figures for the GI50 in assay [7] and in assay [8] were 11.2 µM and 2.63 µM, respectively. The TGI in assay [1] worked out at 25.3 µM; in assay [2], 15.4 µM; in assay [3], 11 µM; in assay [4], 17.2 µM; in assay [5], 18.3 µM; in assay [6] it was 3.63 µM. The TGI turned out to be 36.4 µM in assay [7] and 10.3 µM in assay [8].
As for `CCCSc1cc(Cl)nc(N)n1`, the GI50 in assay [1], in assay [2], in assay [3], in assay [4], in assay [5] and in assay [6] was over 100 µM throughout. The GI50 in assay [7] and in assay [8] was over 100 µM throughout. The TGI in assay [1], in assay [2], in assay [3], in assay [4], in assay [5] and in assay [6] was over 100 µM throughout. Further, the TGI in assay [7] and in assay [8] was over 100 µM each time.
Turning to `COc1ccc2c(c1)[C@@]13CCN4CC5=CCO[C@H]6CC(=O)N2[C@H]1[C@H]6[C@H]5C[C@H]43`, the TGI in assay [1], in assay [2], in assay [3], in assay [4], in assay [5] and in assay [6] was over 100 µM each time. The TGI in assay [7] and in assay [8] was over 100 µM throughout.
As for `O=P(O)(O)C(O)(Cn1ccnc1)P(=O)(O)O`, the GI50 in assay [1] was over 89.7 µM; in assay [2], over 72.2 µM; in assay [3] it was 53.5 µM; in assay [4], over 100 µM; in assay [5] it was over 62.8 µM; in assay [6], over 53.8 µM. In addition, the figures for the GI50 in assay [7] and in assay [8] were over 81.1 µM and over 64.1 µM, respectively. For the same compound, the TGI in assay [1] is over 100 µM; in assay [2] it was over 100 µM; in assay [3], over 100 µM; in assay [4], over 100 µM; in assay [5] it was over 100 µM; in assay [6] it was over 77.9 µM. Further, the TGI in assay [7] and in assay [8] was over 100 µM throughout.
As to `CS(=O)(=O)Nc1ccc(-c2ccc3c(NC(=O)C4CC4)n[nH]c3c2)cc1`, the GI50 in assay [1] was over 25 µM; in assay [2], over 23.8 µM; in assay [3], over 25 µM; in assay [4], over 22.5 µM; in assay [5], over 25 µM; in assay [6] it was over 25 µM. Further, the GI50 in assay [7] is 13.7 µM; in assay [8], over 25 µM. Moreover, the TGI in assay [1], in assay [2], in assay [3], in assay [4], in assay [5] and in assay [6] was over 25 µM each time. For the same compound, the TGI in assay [7] and in assay [8] was over 25 µM throughout.
Take `COc1cc(/C=C2\CC3C4CC=C5CC(N6CCCC6)CC[C@]5(C)C4CC[C@]3(C)C2OC(C)=O)ccc1OCCN1CCCC1` (stereo not given in full): the GI50 in assay [1] was 14.2 µM; in assay [2] it was 3.52 µM; in assay [3] it was 1.8 µM; in assay [4] it was 1.9 µM; in assay [5] it was 2.51 µM; in assay [6], 1.54 µM. The GI50 was 3.28 µM in assay [7] and 2.52 µM in assay [8]. Besides, the TGI in assay [1] is 27.6 µM; in assay [2], over 100 µM; in assay [3] it was 3.63 µM; in assay [4] it was 3.92 µM; in assay [5], 5.42 µM; in assay [6], 2.87 µM. Further, the values for the TGI in assay [7] and in assay [8] were 8.92 µM and 5.2 µM, respectively.
Consider `CCCNCc1cc(C)cc2c1nc(N1CCNCC1)n2Cc1cc(C)c(F)c(C)c1`, for which the GI50 was 12.8 µM in assay [1]; 6.15 µM in assay [2]; 10.3 µM in assay [3]; 1.93 µM in assay [4]; 1.84 µM in assay [5]; 2.19 µM in assay [6]. In addition, the GI50 in assay [7] was 15.8 µM; in assay [8], 16.1 µM. Also, the TGI in assay [1] is 27.3 µM; in assay [2], 19.6 µM; in assay [3] it was 25.1 µM; in assay [4], 4.03 µM; in assay [5] it was 3.54 µM; in assay [6], 4.54 µM. The TGI was determined as 29.4 µM in assay [7] and 31 µM in assay [8].
As to `C=C1C(=O)O[C@H]2[C@H]1CC/C(COC(=O)c1cc3cc(OC)ccc3[nH]1)=C\CC[C@@]1(C)O[C@@H]21`, the GI50 in assay [1] is 1.49 µM; in assay [2], 1.03 µM; in assay [3], 1.48 µM; in assay [4], 1.83 µM; in assay [5], 1.23 µM; in assay [6] it was 0.425 µM. The GI50 in assay [7] is 4.9 µM; in assay [8] it was 1.68 µM. Moreover, the TGI came out at 2.97 µM in assay [1]; 2.19 µM in assay [2]; 3.17 µM in assay [3]; 3.84 µM in assay [4]; 2.61 µM in assay [5]; 1.72 µM in assay [6]. The TGI in assay [7] turned out to be 17.1 µM; in assay [8], 4.9 µM.
Take `COc1ccc(C2C(C#N)=C(N)OC3=C2CCCc2ccc(F)cc23)cc1OC` (stereo not given): the GI50 was 22.8 µM in assay [1]; 19.1 µM in assay [2]; 18.3 µM in assay [3]; 20.9 µM in assay [4]; 24.5 µM in assay [5]; 11 µM in assay [6]. For the same compound, the GI50 in assay [7] was 25.4 µM; in assay [8] it was 16.6 µM. The TGI was over 65.9 µM in assay [1]; 36.9 µM in assay [2]; 46.3 µM in assay [3]; 54.4 µM in assay [4]; over 62.4 µM in assay [5]; 39.1 µM in assay [6]. The TGI in assay [7] worked out at 57.7 µM; in assay [8], 43.9 µM.
As to `Cc1noc(C)c1-c1ccc2[nH]c(=O)n3c2c1OC[C@@H]3c1ccccn1`, the GI50 in assay [1] was 9.44 µM; in assay [2] it was over 64.3 µM; in assay [3], 0.965 µM; in assay [4] it was over 100 µM; in assay [5], over 25.8 µM; in assay [6], 2.84 µM. Moreover, the GI50 in assay [7] was 0.634 µM; in assay [8], 2.33 µM. Further, the TGI in assay [1], in assay [2], in assay [3], in assay [4], in assay [5] and in assay [6] was over 100 µM each time. Moreover, the TGI in assay [7] and in assay [8] was over 100 µM in each case.
As to `CCCCCCNc1nc(NCCCCCC)c2[nH]c(NCCCCCC)nc2n1`, the GI50 was 8.77 µM in assay [1]; 12.8 µM in assay [2]; 19 µM in assay [3]; 5.37 µM in assay [4]; 12.1 µM in assay [5]; 1.34 µM in assay [6]. Besides, the GI50 in assay [7] was 24.8 µM; in assay [8] it was 64.5 µM. Also, the TGI in assay [1] was 23.3 µM; in assay [2], 25.4 µM; in assay [3] it was over 53.2 µM; in assay [4], 19.5 µM; in assay [5], 24.6 µM; in assay [6], 3.46 µM. Besides, the TGI in assay [7] is over 74.1 µM; in assay [8], over 100 µM.
As to `Clc1ccc(OCc2nnc3n2N=C(c2ccc(Cl)cc2Cl)CS3)c(Cl)c1`, the GI50 in assay [1] was 22.5 µM; in assay [2] it was 33.6 µM; in assay [3], 20 µM; in assay [4] it was 19.3 µM; in assay [5] it was 22.6 µM; in assay [6], 15.2 µM. The GI50 is 43 µM in assay [7] and 27 µM in assay [8]. In addition, the TGI is 55.4 µM in assay [1]; over 100 µM in assay [2]; 52.9 µM in assay [3]; 56.3 µM in assay [4]; 57 µM in assay [5]; 32.8 µM in assay [6]. In addition, the results for the TGI in assay [7] and in assay [8] were over 100 µM and 91.6 µM, respectively.
Turning to `C[C@H]1CCC/C=C/[C@@H]2C[C@H](N)C[C@H]2[C@H](O)/C=C/C(=O)O1`, the GI50 in assay [1], in assay [2], in assay [3], in assay [4], in assay [5] and in assay [6] was over 100 µM in each case. Further, the GI50 in assay [7] and in assay [8] was over 100 µM throughout. Moreover, the TGI in assay [1], in assay [2], in assay [3], in assay [4], in assay [5] and in assay [6] was over 100 µM throughout. Also, the TGI in assay [7] and in assay [8] was over 100 µM each time.
